From a compilation of properties of binary mixtures (doi:10.1016/j.jct.2019.106017) come the findings set out here.

SMILES strings stand for the structures.

This series in a line: xn = mol fraction of the nth substance listed. Conditions: 99.7 kPa.

Regarding `CC1COC(=O)O1` (centres undefined) + CCCCCCCCn1cc[n+](C)c1.F[B-](F)(F)F, the viscosity is listed as 2.21 mPa·s (303.15 K, x1 = 1); 2 mPa·s (313.15 K, x1 = 1); 1.6 mPa·s (333.15 K, x1 = 1).

As to `CCCCCCCCn1cc[n+](C)c1.F[B-](F)(F)F` + CC1COC(=O)O1, the viscosity runs as follows: (303.15 K, x2 = 0.7343) 5.22 mPa·s; (303.15 K, x2 = 0.917) 2.84 mPa·s; (313.15 K, x2 = 0.4086) 26.1 mPa·s; (313.15 K, x2 = 0.7343) 5.01 mPa·s; (313.15 K, x2 = 0.917) 2.61 mPa·s; (323.15 K, x2 = 0.4086) 18.1 mPa·s. Also, the viscosity was 4.81 mPa·s (323.15 K, x2 = 0.7343); 2.36 mPa·s (323.15 K, x2 = 0.917); 12.9 mPa·s (333.15 K, x2 = 0.4086); 4.62 mPa·s (333.15 K, x2 = 0.7343); 2.16 mPa·s (333.15 K, x2 = 0.917).

By viscosity is commonly meant the internal friction of a fluid under shear. A high value points to sluggish flow.
